Reference: patent US20230143345A1, “PHARMACEUTICAL COMPOSITION FOR PREVENTION OR TREATMENT OF DISEASES CAUSED BY SARS-COV-2” (DONG WHA PHARM. CO., LTD., priority 2020, published 2023)
Read-outs that look alike come from different tables or passages of the source.

What was measured:
SARS-CoV-2 [1] = assay: microbe, parasite or virus in culture; assay type: cell-based; conditions: for IC50: read-out: SARS-CoV-2 virus 50% inhibitory ability (IC50 value); for SARS-CoV-2 inhibitory ability (in words): comparison at IC50 values with Remdesivir, Lopinavir and Chloroquine
in vitro = conditions: African green monkey
Vero cell lines = assay: Cell viability of Vero cells in the SARS-CoV-2 inhibition experiment (Example 2)
SARS-CoV-2 [2] = assay: microbe, parasite or virus in culture; assay type: cell-based; conditions: read-out: SARS-CoV-2 virus 50% inhibitory ability (IC50 value)
VERO cells = assay: Cell viability of VERO cells by WST-1 assay (Example 3); conditions: read-out: 50% cell viability inhibitory concentration (CC50 value); VERO cells, WST-1 assay

COc1cc2cc3c(c(-c4cc5c(cc4O)OCO5)c2cc1OC)C(=O)OC3 [6′ hydroxyl justicidin-B, 9-(6-hydroxy-benzo[1,3]dioxol-5-yl)-6,7-dimethoxy-3H-naphtho[2,3-c]furan-1-one]
IC50 (SARS-CoV-2 [1]; Severe acute respiratory syndrome coronavirus 2, Vero, 24 h): 1.06 µM | inhibition at 0.1 µM (SARS-CoV-2 [1]; Severe acute respiratory syndrome coronavirus 2, concentration 0.10 uM, Vero cells, 24 h, read-out: SARS-CoV-2 virus inhibitory ability (%, average ± standard deviation)): 1.45 ± 1.16% | inhibition at 0.2 µM (SARS-CoV-2 [1]; Severe acute respiratory syndrome coronavirus 2, concentration 0.20 uM, Vero cells, 24 h, read-out: SARS-CoV-2 virus inhibitory ability (%, average ± standard deviation)): -1.71 ± 4.34% | inhibition at 0.39 µM (SARS-CoV-2 [1]; Severe acute respiratory syndrome coronavirus 2, concentration 0.39 uM, Vero cells, 24 h, read-out: SARS-CoV-2 virus inhibitory ability (%, average ± standard deviation)): 3.39 ± 3.95% | inhibition at […] (SARS-CoV-2 [1]; Severe acute respiratory syndrome coronavirus 2, concentration 0.78 uM, Vero cells, 24 h, read-out: SARS-CoV-2 virus inhibitory ability (%, average ± standard deviation)): 35.6 ± 0.69% | inhibition at 1.56 µM (SARS-CoV-2 [1]; Severe acute respiratory syndrome coronavirus 2, concentration 1.56 uM, Vero cells, 24 h, read-out: SARS-CoV-2 virus inhibitory ability (%, average ± standard deviation)): 68.6 ± 3.12% | inhibition at 3.13 µM (SARS-CoV-2 [1]; Severe acute respiratory syndrome coronavirus 2, concentration 3.13 uM, Vero cells, 24 h, read-out: SARS-CoV-2 virus inhibitory ability (%, average ± standard deviation)): 95.86 ± 0.86% | inhibition at 6.25 µM (SARS-CoV-2 [1]; Severe acute respiratory syndrome coronavirus 2, concentration 6.25 uM, Vero cells, 24 h, read-out: SARS-CoV-2 virus inhibitory ability (%, average ± standard deviation)): 99.74 ± 0.24% | inhibition at 12.5 µM (SARS-CoV-2 [1]; Severe acute respiratory syndrome coronavirus 2, concentration 12.5 uM, Vero cells, 24 h, read-out: SARS-CoV-2 virus inhibitory ability (%, average ± standard deviation)): 98.9 ± 1.49% | inhibition at 25 µM (SARS-CoV-2 [1]; Severe acute respiratory syndrome coronavirus 2, concentration 25 uM, Vero cells, 24 h, read-out: SARS-CoV-2 virus inhibitory ability (%, average ± standard deviation)): 99.79 ± 0.6% | inhibition at 50 µM (SARS-CoV-2 [1]; Severe acute respiratory syndrome coronavirus 2, concentration 50 uM, Vero cells, 24 h, read-out: SARS-CoV-2 virus inhibitory ability (%, average ± standard deviation)): 97.8 ± 2.47% | SARS-CoV-2 inhibitory ability (in words) (SARS-CoV-2 [1]; Vero cells): remarkably more excellent | CC50 (in vitro): 314 µM | Cell viability (%, average ± standard deviation) (Vero cell lines; concentration 0.10 uM): 100.66 ± 0.73% | Cell viability (%, average ± standard deviation) (Vero cell lines; concentration 0.20 uM): 104.63 ± 0.44% | Cell viability (%, average ± standard deviation) (Vero cell lines; concentration 0.39 uM): 105.17 ± 0.85% | Cell viability (%, average ± standard deviation) (Vero cell lines; concentration 1.56 uM): 107.86 ± 0.60% | Cell viability (%, average ± standard deviation) (Vero cell lines; concentration 3.13 uM): 105.46 ± 0.38% | Cell viability (%, average ± standard deviation) (Vero cell lines; concentration 6.25 uM): 103.44 ± 1.31% | Cell viability (%, average ± standard deviation) (Vero cell lines; concentration 12.5 uM): 101.11 ± 0.36% | Cell viability (%, average ± standard deviation) (Vero cell lines; concentration 25 uM): 97.80 ± 1.29% | Cell viability (%, average ± standard deviation) (Vero cell lines; concentration 50 uM): 93.38 ± 0.72% | IC50 (SARS-CoV-2 [2]; Severe acute respiratory syndrome coronavirus 2, Vero): 0.05 µM

COc1cc2cc3c(c(-c4ccc5c(c4)OCO5)c2cc1OC)C(=O)OC3 [Justicidin-B, 9-benzo[1,3]dioxol-5-yl-6,7-dimethoxy-3H-naphtho[2,3-c]furanone]
SARS-CoV-2 inhibitory ability (in words) (SARS-CoV-2 [1]; Vero cells): remarkably more excellent | SARS-CoV-2 virus inhibitory ability (%, average ± standard deviation) (SARS-CoV-2 [1]; concentration 0.10 uM, Vero cells, 24 h): 13.37 ± 6.72% | SARS-CoV-2 virus inhibitory ability (%, average ± standard deviation) (SARS-CoV-2 [1]; concentration 0.20 uM, Vero cells, 24 h): 48.73 ± 2.82% | SARS-CoV-2 virus inhibitory ability (%, average ± standard deviation) (SARS-CoV-2 [1]; concentration 0.39 uM, Vero cells, 24 h): 88.06 ± 0.59% | SARS-CoV-2 virus inhibitory ability (%, average ± standard deviation) (SARS-CoV-2 [1]; concentration 1.56 uM, Vero cells, 24 h): 99.61 ± 0.65% | SARS-CoV-2 virus inhibitory ability (%, average ± standard deviation) (SARS-CoV-2 [1]; concentration 3.13 uM, Vero cells, 24 h): 100.03 ± 0.27% | SARS-CoV-2 virus inhibitory ability (%, average ± standard deviation) (SARS-CoV-2 [1]; concentration 12.5 uM, Vero cells, 24 h): 100.01 ± 0.14% | SARS-CoV-2 virus inhibitory ability (%, average ± standard deviation) (SARS-CoV-2 [1]; concentration 25 uM, Vero cells, 24 h): 100.00 ± 0.21% | SARS-CoV-2 virus inhibitory ability (%, average ± standard deviation) (SARS-CoV-2 [1]; concentration 50 uM, Vero cells, 24 h): 100.28 ± 0.49% | IC50 (SARS-CoV-2 [1]): 0.203 µM | CC50 (VERO cells): > 800 µM | Cell viability (%, average ± standard deviation) (Vero cell lines; concentration 0.10 uM): 107.08 ± 1.75% | Cell viability (%, average ± standard deviation) (Vero cell lines; concentration 0.20 uM): 110.62 ± 0.00% | Cell viability (%, average ± standard deviation) (Vero cell lines; concentration 0.39 uM): 107.70 ± 4.88% | Cell viability (%, average ± standard deviation) (Vero cell lines; concentration 1.56 uM): 102.83 ± 5.24% | Cell viability (%, average ± standard deviation) (Vero cell lines; concentration 3.13 uM): 98.69 ± 5.68% | Cell viability (%, average ± standard deviation) (Vero cell lines; concentration 6.25 uM): 94.60 ± 3.46% | Cell viability (%, average ± standard deviation) (Vero cell lines; concentration 12.5 uM): 90.01 ± 1.60% | Cell viability (%, average ± standard deviation) (Vero cell lines; concentration 25 uM): 83.49 ± 1.22% | Cell viability (%, average ± standard deviation) (Vero cell lines; concentration 50 uM): 78.67 ± 2.53% | IC50 (SARS-CoV-2 [2]; VERO cells infected at MOI 0.1 for one hour, then drug, culture fluid after 48 hours, qRT-PCR): 0.17 µM
